Experimental data: publication PMC5719408, “Multivalent cross-linking of actin filaments and microtubules through the microtubule-associated protein Tau” (Nature Communications, 2017)
Entries after “also recorded” stand apart in the source; their conditions may differ.

Columns and labels:
[1] = tested on: F-actin; assay: Protein co-sedimentation / actin bundling (differential centrifugation, SDS gel); assay type: biochemical, human; settings: co-sedimentation; F-actin with Tau (1:1) or Tau peptides (1:10; Tau(254–268) 1:30), room temperature 30 min
Method: The ability of Tau to bundle F-actin was studied using electron microscopy (EM). […] Next, Tau/F-actin co-sedimentation was performed. The same sample, which was used for EM, was exposed to two sequential steps of centrifugation, in which single-actin filaments and actin bundles were collected separately. Subsequently, aliquots from supernatant (SN), filament (PF), and bundle (PB) fractions were loaded in a 4–20% gradient gel (Fig. 1c).
The sample was then dialyzed against General Actin Buffer (GAB; 5 mM TrisHCl pH 8.0, 0.2 mM CaCl2, 0.2 mM ATP, 0.5 mM DTT) or NMR buffer (50 mM NaH2PO4/Na2HPO4 pH 6.8, 10 mM NaCl, 1 mM DTT, 10% (v/v) D2O) to be used for electron microscopy or NMR experiments, respectively. In case of actin, lyophilized actin was reconstituted to 10 mg ml^−1 by adding 100 μl of distilled water to be in the following buffer: GAB with 5% (w/v) sucrose and 1% (w/v) dextran. Subsequently, the sample was spun at 18,400 × g for 15 min, the supernatant was kept, and actin was polymerized by incubating 0.4 mg ml^−1 G-actin in GAB and supplemented with polymerization buffer (1/10th the volume; 100 mM Tris HCl pH 7.5, 20 mM MgCl2, 500 mM KCl, 10 mM ATP) for 1 h at room temperature. Afterwards, the sample was centrifuged at 100,000 × g during 1 h at 4 °C. Filaments were collected at the bottom of the ultracentrifuge tube. The pellet was then resuspended in GAB or NMR Buffer as required.
Mixtures of F-actin with Tau (1:1) or Tau peptides (1:10 molar ratio) were incubated at room temperature for 30 min. In case of the shorter peptide Tau(254–268), a 1:30 ratio was used. Centrifugation was performed in two steps. First, a spin rate of 5000 × g was used during 15 min to collect bundles of F-actin (PB) at the bottom of the tube. Secondly, the remaining sample was centrifuged at 100,000 × g during 1 h collecting actin filaments (PF). The final supernatant (SN) was also kept for later usage. Pellets were resuspended in 80 μl of GAB. A volume of 25 μl of sample were taken for EM while the remaining 55 μl were loaded in a 4–20% gradient SDS gel, which was colored with […] and denatured with SDS and heat.

[2] = tested on: F-actin; assay: 2D 1H-15N HSQC NMR signal attenuation of Tau by F-actin; assay type: binding, human; settings: Tau/F-actin molar ratio 1:1.5; compared with non-phosphorylated Tau
Text: In order to identify residues in Tau that bind to F-actin, we used NMR spectroscopy. […] According to the resonance assignment of Tau[27], cross-peaks from residues such as S262, N265, and T319 were strongly attenuated. Other residues including T175 and T217 were less affected, and S46 and S64 were not perturbed. Figure 1f highlights the sequence specific intensity ratio of all non-overlapping cross-peaks of Tau in the presence and absence of F-actin. […] In contrast, residues, which are bound to F-actin, should have low (I bound/I free) values, because their resonances would—due to the high molecular weight of the complex—be attenuated. […] Consistent with this hypothesis, the cross-peaks of these residues were attenuated by F-actin also at higher ionic strength (Supplementary Fig. 3).
The sample was then dialyzed against General Actin Buffer (GAB; 5 mM TrisHCl pH 8.0, 0.2 mM CaCl2, 0.2 mM ATP, 0.5 mM DTT) or NMR buffer (50 mM NaH2PO4/Na2HPO4 pH 6.8, 10 mM NaCl, 1 mM DTT, 10% (v/v) D2O) to be used for electron microscopy or NMR experiments, respectively. In case of actin, lyophilized actin was reconstituted to 10 mg ml^−1 by adding 100 μl of distilled water to be in the following buffer: GAB with 5% (w/v) sucrose and 1% (w/v) dextran. […]

Substance: MARK2-phosphorylated Tau: full-length Tau phosphorylated by MARK2 at S262, S293, S305, S324, S356, and S416
- bundling of F-actin [1]: failed in bundling actin filaments
- F-actin-induced NMR signal attenuation near phosphorylation sites / F-actin binding in words [2]: little attenuation of NMR signals in vicinity of the phosphorylation sites; also recorded: attenuates its binding to F-actin
